Measured values from US8268827B2, “Pyridazinone derivatives as PARP inhibitors” (Istituto di Ricerche di Biologia Molecolare P. Angeletti …, priority 2007, dated 2012).
Where a name gives a salt, the structure may show the parent alone.

Test system: BRCA-1 silenced HeLa cells (HeLa shBRCA1-GFP)
Experiment: Proliferation assay in BRCA-1 silenced HeLa cells
Type: cell-based
Conditions: Homo sapiens; BRCA1 silenced HeLa cells, 168 hours; read-out: CC50 in the BRCA1 silenced HeLa cells
Description: Proliferation Assay in BRCA-1 Silenced HeLa Cells
Compounds of the present invention were also tested in an anti-proliferative assay in matched pair BRCA1 wt and BRCA1-(shRNA) HeLa cells.
The assay is based on the ability of living cells to convert a redox dye (resazurin) into a fluorescent end product (resofurin). The amount of resofurin produced is directly proportional to the cell number.
HeLa shBRCA1-GFP—These are HeLa cells transduced at an MOI of 100 with a Lentivirus containing a shRNA against BRCA-1 and an expression cassette for GFP. BRCA-1 silencing is more than 80% as assessed by Taqman analysis and the cells stably express GFP.
HeLa THM-GFP—These are HeLa cells transduced at an MOI of 100 with a control vector not expressing any shRNA.
• Seed 300 cell/well in 96 wells viewplate black in 90 ul culture Medium*: • Incubate 4 hours at 37° C., 5% CO2 • Add 10 ul/well of 10× compound (5% DMSO in H2O) • Incubate for 168 hours at 37° C., 5% CO2 • Add 10 ul of Celltiter Blue solution (Promega, G8081) pre-diluted 1:1 in PBS1× • Incubate the mixture for 45′ at 37° C., 5% CO2 • Incubate 15′ at RT in the dark • Read plate at fluorimeter ex: 550 nm; em: 590 nm *Culture Medium: DMEM (GIBCO, 41966-029), 10% FCS (GIBCO, 10106-169), 0.1 mg/ml Penicillin-Streptomycin (GIBCO, 15140-114), 2 mM L-Glutamine (GIBCO, 3042190)

| Compound | CC50 [nM] |
| --- | --- |
| Cc1c(Cc2ccc(F)c(C(=O)N3CC(=O)N4CCCC[C@H]4C3)c2)n[nH]c(=O)c1C [Example 89, (9aS)-2-{5-[(4,5-Dimethyl-6-oxo-1,6-dihydropyridazin-3-yl)methyl]-2-fluorobenzoyl}octahydro-4H-pyrido[1,2-a]pyrazin-4-one trifluoroacetate] | < 5000 |
| Cc1c(Cc2ccc(F)c(C(=O)N3CCN(C4COc5ccccc5C4)C(=O)C3)c2)n[nH]c(=O)c1C (stereo not shown) [Example 98, 6-(3-{[4-(3,4-dihydro-2H-chromen-3-yl)-3-oxopiperazin-1-yl]carbonyl}-4-fluorobenzyl)-4,5-dimethyl-3-oxo-2,3-dihydropyridazin-1-ium trifluoroacetate] | < 50 |
| Cc1c(Cc2ccc(F)c(C(=O)N3CCN(C4CCCc5ccccc54)C(=O)C3)c2)n[nH]c(=O)c1C (stereo not shown) [Example 99, 6-(4-fluoro-3-{[3-oxo-4-(1,2,3,4-tetrahydronaphthalen-1-yl)piperazin-1-yl]carbonyl}benzyl)-4,5-dimethyl-3-oxo-2,3-dihydropyridazin-1-ium trifluoroacetate] | < 50 |
| Cc1c(Cc2ccc(F)c(C(=O)N3CCN(C4CCc5ccccc54)C(=O)C3)c2)n[nH]c(=O)c1C (stereo not shown) [Example 100, 6-(3-{[4-(2,3-dihydro-1H-inden-1-yl)-3-oxopiperazin-1-yl]carbonyl}-4-fluorobenzyl)-4,5-dimethyl-3-oxo-2,3-dihydropyridazin-1-ium trifluoroacetate] | < 50 |
| Cc1c(Cc2ccc(F)c(C(=O)N3CCN([C@@H]4C[C@H]5CC[C@@H]4C5)C(=O)C3)c2)n[nH]c(=O)c1C [Example 101, 6-[3-({4-[(1R,2R,4S)-Bicyclo[2.2.1]hept-2-yl]-3-oxopiperazin-1-yl}carbonyl)-4-fluorobenzyl]-4,5-dimethyl-3-oxo-2,3-dihydropyridazin-1-ium trifluoroacetate] | < 50 |
| Cc1c(Cc2ccc(F)c(C(=O)N3CC(=O)N(C4CCCC4)C(C)C3)c2)n[nH]c(=O)c1C (stereo not shown) [Example 102, 6-{3-[(4-cyclopentyl-3-methyl-5-oxopiperazin-1-yl)carbonyl]-4-fluorobenzyl}-4,5-dimethyl-3-oxo-2,3-dihydropyridazin-1-ium trifluoroacetate] | < 50 |
| Cc1c(Cc2ccc(F)c(C(=O)N3CCN([C@H]4CCCOC4)C(=O)C3)c2)n[nH]c(=O)c1C [Example 103, 6-[4-fluoro-3-({3-oxo-4-[(3S)-tetrahydro-2H-pyran-3-yl]piperazin-1-yl}carbonyl)benzyl]-4,5-dimethylpyridazin-3(2H)-one] | 50 to 500 |
| Cc1c(Cc2ccc(F)c(C(=O)N3CCN([C@@H]4CCCOC4)C(=O)C3)c2)n[nH]c(=O)c1C [Example 104, 6-[4-fluoro-3-({3-oxo-4-[(3R)-tetrahydro-2H-pyran-3-yl]piperazin-1-yl}carbonyl)benzyl]-4,5-dimethylpyridazin-3(2H)-one] | < 50 |
| CCN1CCN(C(=O)c2cc(Cc3n[nH]c(=O)c(C(F)(F)F)c3C)ccc2F)CC1=O [Example 105, 3-{3-[(4-Ethyl-3-oxopiperazin-1-yl)carbonyl]-4-fluorobenzyl}-4-methyl-6-oxo-5-(trifluoromethyl)-1,6-dihydropyridazin-1-ium trifluoroacetate] | < 50 |
| Cc1c(Cc2ccc(F)c(C(=O)N3CCN(C4COC5(CCCC5)C4)C(=O)C3)c2)n[nH]c(=O)c1C (stereo not shown) [Example 106, 6-(4-Fluoro-3-{[4-(1-oxaspiro[4.4]non-3-yl)-3-oxopiperazin-1-yl]carbonyl}benzyl)-4,5-dimethylpyridazin-3(2H)-one trifluoroacetate] | 50 to 500 |
| Cc1c(Cc2ccc(F)c(C(=O)N3CCN(C4COC5(CCCCC5)C4)C(=O)C3)c2)n[nH]c(=O)c1C (stereo not shown) [Example 107, 6-(4-Fluoro-3-{[4-(1-oxaspiro[4.5]dec-3-yl)-3-oxopiperazin-1-yl]carbonyl}benzyl)-4,5-dimethylpyridazin-3(2H)-one trifluoroacetate] | 50 to 500 |
| Cc1c(Cc2ccc(F)c(C(=O)N3CCN(C4(C)CCCCC4)C(=O)C3)c2)n[nH]c(=O)c1C [Example 110, 6-(4-fluoro-3-{[4-(1-methylcyclohexyl)-3-oxopiperazin-1-yl]carbonyl}benzyl)-4,5-dimethyl-3-oxo-2,3-dihydropyridazin-1-ium trifluoroacetate] | < 5000 |
| Cc1c(Cc2ccc(F)c(C(=O)N3CCN([C@@H]4CCOC4)C(=O)C3)c2)n[nH]c(=O)c1C [Example 112, 6-[4-Fluoro-3-({3-oxo-4-[(3R)-tetrahydrofuran-3-yl]piperazin-1-yl}carbonyl)benzyl]-4,5-dimethylpyridazin-3(2H)-one] | < 5000 |
| Cc1nc(C)c(N2CCN(C(=O)c3cc(Cc4n[nH]c(=O)c(C)c4C)ccc3F)CC2=O)s1 [Example 117, 3-(3-{[4-(2,4-Dimethyl-1,3-thiazol-5-yl)-3-oxopiperazin-1-yl]carbonyl}-4-fluorobenzyl)-4,5-dimethyl-6-oxo-1,6-dihydropyridazin-1-ium trifluoroacetate] | 50 to 500 |
| Cc1c(Cc2ccc(F)c(C(=O)N3CCN(C(c4ccc(F)cc4)C(F)F)C(=O)C3)c2)n[nH]c(=O)c1C (stereo not shown) [Example 118, 6-[3-({4-[2,2-difluoro-1-(4-fluorophenyl)ethyl]-3-oxopiperazin-1-yl}carbonyl)-4-fluorobenzyl]-4,5-dimethyl-3-oxo-2,3-dihydropyridazin-1-ium trifluoroacetate] | 50 to 500 |
| Cc1c(Cc2ccc(F)c(C(=O)N3CCN(C4CCC(c5ccccc5)C4)C(=O)C3)c2)n[nH]c(=O)c1C (stereo not shown) [Example 119, 6-(4-fluoro-3-{[3-oxo-4-(3-phenylcyclopentyl)piperazin-1-yl]carbonyl}benzyl)-4,5-dimethyl-3-oxo-2,3-dihydropyridazin-1-ium trifluoroacetate] | < 50 |
| Cc1c(Cc2ccc(F)c(C(=O)N3CCN([C@H](C)c4ccccc4)C(=O)C3)c2)n[nH]c(=O)c1C [Example 121, 6-[4-fluoro-3-({3-oxo-4-[(1R)-1-phenylethyl]piperazin-1-yl}carbonyl)benzyl]-4,5-dimethyl-3-oxo-2,3-dihydropyridazin-1-ium trifluoroacetate] | 50 to 500 |
| Cc1c(Cc2ccc(F)c(C(=O)N3CCN([C@@H](C)c4ccccc4)C(=O)C3)c2)n[nH]c(=O)c1C [Example 122, 6-[4-fluoro-3-({3-oxo-4-[(1S)-1-phenylethyl]piperazin-1-yl}carbonyl)benzyl]-4,5-dimethyl-3-oxo-2,3-dihydropyridazin-1-ium trifluoroacetate] | 50 to 500 |
| Cc1c(Cc2ccc(F)c(C(=O)N3CCN([C@H](c4ccccc4)C(F)F)C(=O)C3)c2)n[nH]c(=O)c1C [Example 123, 6-(3-{[4-(2,2-difluoro-1R-phenylethyl)-3-oxopiperazin-1-yl]carbonyl}-4-fluorobenzyl)-4,5-dimethyl-3-oxo-2,3-dihydropyridazin-1-ium trifluoroacetate] | 50 to 500 |
| Cc1c(Cc2ccc(F)c(C(=O)N3CC(=O)N(C4CCC(F)(F)CC4)C(C)C3)c2)n[nH]c(=O)c1C (stereo not shown) [Example 126, 6-(3-{[4-(4,4-Difluorocyclohexyl)-3-methyl-5-oxopiperazin-1-yl]carbonyl}-4-fluorobenzyl)-4,5-dimethylpyridazin-3(2H)-one trifluoroacetate] | < 50 |
| Cc1c(Cc2ccc(F)c(C(=O)N3CC(=O)N(C4CCC(F)(F)C4)C(C)C3)c2)n[nH]c(=O)c1C (stereo not shown) [Example 127, 6-(3-{[4-(3,3-Difluorocyclopentyl)-3-methyl-5-oxopiperazin-1-yl]carbonyl}-4-fluorobenzyl)-4,5-dimethylpyridazin-3(2H)-one trifluoroacetate] | < 50 |
| Cc1c(Cc2ccc(F)c(C(=O)N3CC(=O)N(C4CCC(C)(C)CC4)C(C)C3)c2)n[nH]c(=O)c1C (stereo not shown) [Example 128, 6-(3-{[4-(4,4-Dimethylcyclohexyl)-3-methyl-5-oxopiperazin-1-yl]carbonyl}-4-fluorobenzyl)-4,5-dimethylpyridazin-3(2H)-one trifluoroacetate] | < 50 |
| Cc1c(Cc2ccc(F)c(C(=O)N3CC(=O)N(C4CCCOC4)C(C)C3)c2)n[nH]c(=O)c1C (stereo not shown) [Example 129, 6-(4-Fluoro-3-{[3-methyl-5-oxo-4-(tetrahydro-2h-pyran-3-yl)piperazin-1-yl]carbonyl}benzyl)-4,5-dimethylpyridazin-3(2H)-one trifluoroacetate] | 50 to 500 |
| Cc1c(Cc2ccc(F)c(C(=O)N3CC(=O)N(C4CCOC4)C(C)C3)c2)n[nH]c(=O)c1C (stereo not shown) [Example 130, 6-(4-Fluoro-3-{[3-methyl-5-oxo-4-(tetrahydrofuran-3-yl)piperazin-1-yl]carbonyl}benzyl)-4,5-dimethylpyridazin-3(2H)-one trifluoroacetate] | 50 to 500 |
| Cc1c(Cc2ccc(F)c(C(=O)N3CC(=O)N(C(c4ccccc4)C(F)F)C(C)C3)c2)n[nH]c(=O)c1C (stereo not shown) [Example 131, 6-(3-{[4-(2,2-Difluoro-1-phenylethyl)-3-methyl-5-oxopiperazin-1-yl]carbonyl}-4-fluorobenzyl)-4,5-dimethylpyridazin-3(2H)-one trifluoroacetate] | < 50 |
